Reference: US20220280515A1, “Ophthalmic Composition for Promoting Tear Secretion” (Rohto Pharmaceutical Co., Ltd., priority 2019, published 2022)
Counter-ions that a name gives are not always drawn.

What was measured:
dry eye model of rats = conditions: reported in Non Patent Literature 1; cited from earlier work
[1] = test system: lacrimal gland excised rats; test: Action of ameliorating keratoconjunctival epithelial disorders by repeated ophthalmic administration, fluorescein staining score, lacrimal gland excised rats (dry eye model); type: in vivo, SD rats; conditions: main lacrimal gland excised rats; each concentration (0.0125%, 0.05%, 0.2%), 5 μL/eye four times a day, four weeks; Steel test
Experimental: The action of ameliorating keratoconjunctival epithelial disorders of delgocitinib was evaluated using rats with lacrimal gland excision used as a dry eye model. Fluorescein sodium salt (Sigma-Aldrich Japan) was dissolved in OTSUKA NORMAL SALINE (Otsuka Pharmaceutical Factory, Inc.) to prepare a 10 mg/mL fluorescein staining solution. Delgocitinib was dissolved and stirred in PBS (Kohjin Bio Co., Ltd.) to prepare delgocitinib solutions at each concentration (0.0125%, 0.05%, and 0.2%). Into male SD rats (Japan SLC, Inc.) whose main lacrimal gland had been excised 1 week earlier, the PBS or the delgocitinib solutions at each concentration were repeatedly instilled four times a day at a dose of 5 μL/eye. Four weeks after the start of ophthalmic instillation, the 10 mg/mL fluorescein staining solution was instilled at a dose of 1 μL/eye. After induction of anesthesia with an ISOFLURANE inhalation solution (Pfizer Japan Inc.), a photograph was taken with a fluorescence microscope (Leica Microsystems). The cornea captured in the photograph was divided into four sections, the staining score of each section was scored on a scale of 0 to 5, and the total score of four sections was used as the corneal epithelial disorder score for the eye.

[2] = test system: lacrimal gland excised rats; test: Tear volume increasing action by repeated ophthalmic administration, lacrimal gland excised rats (dry eye model); type: in vivo, Sprague-Dawley (SD) rats; conditions: main lacrimal gland excised rats; each concentration (0.0125%, 0.05%, 0.2%), 5 μL/eye four times a day, four weeks; Steel test
Experimental: The tear secretion volume increasing action of delgocitinib was evaluated using lacrimal gland excised rats as a dry eye model. Delgocitinib was dissolved and stirred in PBS (Kohjin Bio Co., Ltd.) to prepare delgocitinib solutions (0.0125%, 0.05%, and 0.2%) at each concentration. Into normal male Sprague-Dawley (SD) rats (Japan SLC, Inc.) and SD rats whose main lacrimal gland had been excised 1 week earlier, the PBS or the delgocitinib solutions at each concentration were repeatedly instilled four times a day at a dose of 5 μL/eye. Four weeks after the start of ophthalmic instillation, the PBS or the delgocitinib solutions at each concentration were instilled at a dose of 5 μL/eye, anesthesia was induced using somnopentyl (Kyoritsu Seiyaku Corporation) 10 minutes later, and another 5 minutes later, a Schirmer's test paper was inserted into conjunctival sac on the corner of the eye. One minute later, the test paper was pulled out, and the length of the wet part of the test paper was measured, and this measured value was used as a tear volume.

[3] = test system: lacrimal gland excised rats; test: Tear secretion promoting action by single ophthalmic administration, Schirmer's test paper, lacrimal gland excised rats; type: in vivo, Sprague-Dawley (SD) rats; conditions: rats with main and accessory lacrimal glands excised 1 week earlier; 5 μL/eye single instillation (DIQUAS 3%, 3% pilocarpine, 0.05% delgocitinib); 15 minutes later; Mann-whitney U test
Experimental: (§1) The tear secretion promoting action of delgocitinib was evaluated using normal rats and lacrimal gland excision rats.
(§2) As a test substance, a 0.05% delgocitinib solution (delgocitinib as the active ingredient and sodium chloride, potassium chloride, sodium hydroxide, boric acid, and chlorhexidine gluconate as additives were combined, dissolved and stirred in purified water) was prepared. As a control substance, pilocarpine hydrochloride (Tokyo Chemical Industry Co., Ltd.) was dissolved and stirred in saline (OTSUKA NORMAL SALINE, Otsuka Pharmaceutical Factory, Inc.) to prepare a 3% pilocarpine solution.
(§3) Into normal male Sprague-Dawley (SD) rats (Japan SLC, Inc.) and SD rats whose main and accessory lacrimal glands had been excised 1 week earlier, saline, the DIQUAS ophthalmic solution 3% (Santen Pharmaceutical Co., Ltd.), the 3% pilocarpine solution, or the 0.05% delgocitinib solution was instilled at a dose of 5 μL/eye. Ten minutes later, anesthesia was induced using somnopentyl (Kyoritsu Seiyaku Corporation), and another 5 minutes later, a Schirmer's test paper was inserted into conjunctival sac on the corner of the eye. One minute later, the test paper was pulled out, and the length of the wet part of the test paper was measured, and this measured value was used as a tear volume.

normal rabbits = test: Tear secretion promoting action by single ophthalmic administration, Schirmer's test paper, normal rabbits; type: in vivo, Japanese white rabbits; conditions: 0.05% solution in PBS, 50 μL/eye single instillation, 15 minutes later, Student's t test
Experimental: The tear secretion promoting action of delgocitinib was evaluated using normal rabbits. Delgocitinib was dissolved and stirred in PBS (Kohjin Bio Co., Ltd.) to prepare a 0.05% delgocitinib solution. Male Japanese white rabbits (Oriental Yeast Co., Ltd.) were placed in retention tubes, and the PBS or the 0.05% delgocitinib solution was instilled at a dose of […]. Fifteen minutes later, a Schirmer's test paper was inserted into conjunctival sac on the corner of the eye. One minute later, the test paper was pulled out, and the length of the wet part of the test paper was measured, which was used as a tear volume.

normal rats = test: Tear secretion promoting action by single ophthalmic administration, Schirmer's test paper, normal rats; type: in vivo, Sprague-Dawley (SD) rats; conditions: 5 μL/eye single instillation (DIQUAS 3%, 3% pilocarpine, 0.05% delgocitinib), 15 minutes later, Mann-whitney U test
Experimental: as §1, §2, §3

normal mice = test: Tear secretion promoting action by single ophthalmic administration, phenol red thread, normal mice; type: in vivo, C57BL/6J mice; conditions: 3 μL/eye single instillation, 15 minutes later
Experimental: The tear secretion promoting action of delgocitinib was evaluated using normal mice. Delgocitinib was dissolved and stirred in PBS (Kohjin Bio Co., Ltd.) to prepare delgocitinib solutions at each concentration (0.0125%, 0.05%, and 0.2%). Female C57BL/6J mice (Japan SLC, Inc.) were retained, and the PBS or the delgocitinib solutions at each concentration were instilled at a dose of 3 μL/eye. Fifteen minutes later, a phenol red thread (ZONE-QUICK, AYUMI Pharmaceutical Corporation) was inserted into conjunctival sac on the corner of the eye. Fifteen seconds later, the phenol red thread was pulled out, the length of the wet part of the phenol red thread was measured, and this measured value was used as the tear volume.

Structure (SMILES) | corneal epithelial disorders (dry eye model of rats) | secretion of tear (dry eye model of rats) | corneal epithelial disorder score (fluorescein staining, total of four sections each 0 to 5) compared with the PBS group [1] | tear volume (length of the wet part of Schirmer's test paper) compared with the PBS group [2] | tear volume (length of the wet part of Schirmer's test paper) compared with the saline group [3] | tear volume (length of the wet part of Schirmer's test paper) compared with the PBS group (normal rabbits) | tear volume (length of the wet part of Schirmer's test paper) compared with the saline group (normal rats) | tear volume (length of the wet part of phenol red thread) compared with the PBS group (normal mice; 0.05% solution, Dunnett's test) | tear volume (length of the wet part of phenol red thread) compared with the PBS group (normal mice; 0.2% solution, Dunnett's test) | tear volume (length of the wet part of phenol red thread) compared with the PBS group (normal mice; each concentration (0.0125%, 0.05%, 0.2%))
O=c1ccn([C@@H]2O[C@H](COP(=O)(O)OP(=O)(O)OP(=O)(O)OP(=O)(O)OC[C@H]3O[C@@H](n4ccc(=O)[nH]c4=O)[C@H](O)[C@@H]3O)[C@@H](O)[C@H]2O)c(=O)[nH]1 [diquafosol sodium] | ameliorated corneal epithelial disorders | promoted secretion of tear |  |  |  |  |  |  |  | 
C[C@H]1CN(C(=O)CC#N)[C@]12CCN(c1ncnc3[nH]ccc13)C2 [delgocitinib, 3-[(3S,4R)-3-methyl-6-(7H-pyrrolo[2,3-d]pyrimidin-4-yl)-1,6-diazaspiro[3.4]octan-1-yl]-3-oxopropanenitrile] |  |  | significantly decreased | significantly increased | significantly increased | significantly increased | significantly increased | significant increase | significant increase | increased
CC[C@@H]1C(=O)OC[C@@H]1Cc1cncn1C [pilocarpine, pilocarpine hydrochloride] |  |  |  |  | significantly increased only in the DIQUAS ophthalmic solution 3% group and the 0.05% delgocitinib solution group |  | significantly increased |  |  | 
